Laboratory results taken from patent US8865705B2, “Benzimidazole respiratory syncytial virus inhibitors” (Janssen R&D Ireland, priority 2010, dated 2014).
Where two headings read alike, the source gives them in different places.

Experiments:
rgRSV224 virus = assay: microbe, parasite or virus in culture; format: cell-based, respiratory syncytial virus (RSV); details: read-out: WT activity EC50
Description: Black 96-well clear-bottom microtiter plates (Corning, Amsterdam, The Netherlands) were filled in duplicate using a customized robot system with serial 4-fold dilutions of compound in a final volume of 50 μl culture medium [RPMI medium without phenol red, 10% FBS, 0.04% gentamycin (50 mg/mL) and 0.5% DMSO]. Then, 100 μl of a HeLa cell suspension (5×10^4 cells/mL) in culture medium was added to each well followed by the addition of 50 μl rgRSV224 (MOI=0.02) virus in culture medium using a multidrop dispenser (Thermo Scientific, Erembodegem, Belgium). rgRSV224 virus is an engineered virus that includes an additional GFP gene (Hallak et al, 2000) and was in-licensed from the NIH (Bethesda, Md., USA). Medium, virus- and mock-infected controls were included in each test. Cells were incubated at 37° C. in a 5% CO2 atmosphere. Three days post-virus exposure, viral replication was quantified by measuring GFP expression in the cells by a MSM laser microscope (Tibotec, Beerse, Belgium). […] In parallel, compounds were incubated for three days in a set of white 96-well microtitier plates (Corning) and the cytotoxicity of compounds in HeLa cells was determined by measuring the ATP content of the cells using the ATPlite kit (PerkinElmer, Zaventem, Belgium) according to the manufacturer's instructions.

HeLa cells = assay: Cytotoxicity in HeLa cells by ATP content (ATPlite kit); format: cell-based
Description: (§1) Black 96-well clear-bottom microtiter plates (Corning, Amsterdam, The Netherlands) were filled in duplicate using a customized robot system with serial 4-fold dilutions of compound in a final volume of 50 μl culture medium [RPMI medium without phenol red, 10% FBS, 0.04% gentamycin (50 mg/mL) and 0.5% DMSO]. Then, 100 μl of a HeLa cell suspension (5×10^4 cells/mL) in culture medium was added to each well followed by the addition of 50 μl rgRSV224 (MOI=0.02) virus in culture medium using a multidrop dispenser (Thermo Scientific, Erembodegem, Belgium). rgRSV224 virus is an engineered virus that includes an additional GFP gene (Hallak et al, 2000) and was in-licensed from the NIH (Bethesda, Md., USA). Medium, virus- and mock-infected controls were included in each test. Cells were incubated at 37° C. in a 5% CO2 atmosphere. Three days post-virus exposure, viral replication was quantified by measuring GFP expression in the cells by a MSM laser microscope (Tibotec, Beerse, Belgium). The EC50 was defined as the 50% inhibitory concentration for GFP expression. In parallel, compounds were incubated for three days in a set of white 96-well microtitier plates (Corning) and the cytotoxicity of compounds in HeLa cells was determined by measuring the ATP content of the cells using the ATPlite kit (PerkinElmer, Zaventem, Belgium) according to the manufacturer's instructions. The CC50 was defined as the 50% concentration for cytotoxicity.

[1] = as above; format: cell-based; details: human; Table 1; HeLa cells, three days, ATP content; read-out: Tox CC50
Description: as §1

[2] = Table 1, rgRSV224 in HeLa cells, GFP expression three days post-virus exposure
[3] = Table 1, HeLa cells, three days, ATP content, read-out: Tox CC50

Row | SMILES | EC50 (rgRSV224 virus; [2]) [nM] | CC50 (HeLa cells) [nM] | CC50 (HeLa cells; [3]) [nM] | EC50 (rgRSV224 virus; human respiratory syncytial virus, HeLa, 72 h) [nM] | CC50 at 3 days [1] [nM]
1 | O=c1n(Cc2nc3cc(Br)ccc3n2CCCCO)c2cc(F)ccc2n1C1CC1 [P16] | 0.744 | > 9840 | – | – | –
2 | N#CCCCn1c(Cn2c(=O)n(C3CC3)c3ccncc32)nc2cc(Cl)ccc21 [P26] | < 0.15 | – | > 9840 | – | –
3 | O=c1n(Cc2nc3cc(Cl)ccc3n2CCCCO)c2cc(F)ccc2n1C1CC1 [P11] | 0.253 | > 9840 | – | – | –
4 | O=c1n(Cc2nc3cc(Br)ccc3n2CCCCF)c2cc(F)ccc2n1C1CC1 [P23] | < 1.6 | – | > 9840 | – | –
5 | O=c1n(Cc2nc3cc(Cl)ccc3n2CCCCO)c2ccccc2n1C1CC1 [P12] | 0.307 | > 9840 | – | – | –
6 | CC(C)CCn1c(Cn2c(=O)n(C3CC3)c3ccncc32)nc2cc(Br)ccc21 [P17] | 0.808 | > 49200 | – | – | –
7 | O=c1n(Cc2nc3cc(Br)ccc3n2CCCCF)c2cnccc2n1C1CC1 [P1] | 0.033 | – | > 9840 | – | –
8 | CS(=O)(=O)CCCn1c(Cn2c(=O)n(C3CC3)c3ccncc32)nc2cc(Cl)ccc21 [P6] | < 0.15 | > 9840 | – | – | –
9 | N#CCCCn1c(Cn2c(=O)n(C3CC3)c3ccncc32)nc2cc(Br)ccc21 [P27] | < 0.15 | – | > 9840 | – | –
10 | O=c1n(Cc2nc3cc(Br)ccc3n2CCCCO)c2cnccc2n1C1CC1 [P14] | 0.523 | > 98400 | – | – | –
11 | O=c1n(Cc2nc3cc(Br)ccc3n2CCCCCl)c2cnccc2n1C1CC1 [P8] | < 0.205 | – | > 9840 | – | –
12 | O=c1n(Cc2nc3cc(Cl)ccc3n2CCCCO)c2cnccc2n1C1CC1 [P13] | 0.454 | > 9840 | – | – | –
13 | CS(=O)(=O)CCCn1c(Cn2c(=O)n(C3CC3)c3ccccc32)nc2cc(Br)ccc21 [P7] | < 0.15 | > 9840 | – | – | –
14 | CS(=O)(=O)NCCCCn1c(Cn2c(=O)n(C3CC3)c3ccncc32)nc2cc(Br)ccc21 [P5] | < 0.15 | > 101000 | – | – | –
15 | CC(=O)OCCCCn1c(Cn2c(=O)n(C3CC3)c3ccc(F)cc32)nc2cc(Br)ccc21 [P22] | < 0.81 | – | > 9840 | – | –
16 | CS(=O)(=O)CCCn1c(Cn2c(=O)n(C3CC3)c3ccncc32)nc2cc(Br)ccc21 [P2, 3-({5-Bromo-1-[3-(methylsulfonyl)propyl]-1H-benzimidazol-2-yl}methyl)-1-cyclopropyl-1,3-dihydro-2H-imidazo[4,5-c]pyridin-2-one] | – | – | – | 0.034 | > 9840
17 | CC(C)CCn1c(Cn2c(=O)n(C3CC3)c3ccncc32)nc2cc(Cl)ccc21 [P15] | < 0.62 | > 98400 | – | – | –
18 | CC(=O)OCCCCn1c(Cn2c(=O)n(C3CC3)c3ccncc32)nc2cc(Br)ccc21 [P18] | 1.07 | – | > 101000 | – | –
19 | O=c1n(Cc2nc3cc(Cl)ccc3n2CCCCF)c2ccccc2n1C1CC1 [P25] | < 0.15 | – | > 9840 | – | –
20 | CS(=O)(=O)CCCn1c(Cn2c(=O)n(C3CC3)c3ccc(F)cc32)nc2cc(Cl)ccc21 [P10] | 0.23 | > 9840 | – | – | –
21 | CC(C)(C)C(=O)OCCCCn1c(Cn2c(=O)n(C3CC3)c3ccc(F)cc32)nc2cc(Cl)ccc21 [P20] | 4.09 | > 9840 | – | – | –
22 | CN(C)CCCn1c(Cn2c(=O)n(C3CC3)c3ccncc32)nc2cc(Br)ccc21 [P21] | 4.12 | > 98400 | – | – | –
